Tests used:
[1] = system: bedstraw; test: Test B pre/postemergence bedstraw; assay type: in vivo, Galium aparine
In short: (§1)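 Test chemicals in a non-phytotoxic solvent mixture with surfactant were sprayed preemergence onto planted seeds and postemergence onto plants 2 to 18 cm tall (1- to 4-leaf stage). After twelve to sixteen days in a greenhouse, injury was visually rated against untreated controls from 0 (no effect) to 10 (complete control).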

[2] = system: blackgrass; test: Test B pre/postemergence blackgrass; assay type: in vivo, Alopecurus myosuroides
In short: as §1

[3] = system: surinam grass; test: Test B pre/postemergence surinam grass; assay type: in vivo, Brachiaria decumbens
In short: as §1

[4] = system: cocklebur; test: Test B pre/postemergence cocklebur; assay type: in vivo, Xanthium strumarium
In short: as §1

[5] = system: corn; test: Test B pre/postemergence corn; assay type: in vivo, Zea mays
In short: as §1

[6] = system: crabgrass; test: Test B pre/postemergence crabgrass; assay type: in vivo, Digitaria sanguinalis
In short: as §1

[7] = system: giant foxtail; test: Test B pre/postemergence giant foxtail; assay type: in vivo, Setaria faberii
In short: as §1

[8] = system: morningglory; test: Test B pre/postemergence morningglory; assay type: in vivo, Ipomoea hederacea
In short: as §1

[9] = system: pigweed; test: Test B pre/postemergence pigweed; assay type: in vivo, Amaranthus retroflexus
In short: as §1

[10] = system: rape; test: Test B pre/postemergence rape; assay type: in vivo, Brassica napus
In short: as §1

[11] = system: soybean; test: Test B pre/postemergence soybean; assay type: in vivo, Glycine max; conditions: Preemergence
In short: as §1

[12] = system: sugar beet; test: Test B pre/postemergence sugar beet; assay type: in vivo, Beta vulgaris; conditions: Preemergence
In short: as §1

[13] = system: velvetleaf; test: Test B pre/postemergence velvetleaf; assay type: in vivo, Abutilon theophrasti; conditions: Preemergence
In short: as §1

[14] = system: wheat; test: Test B pre/postemergence wheat; assay type: in vivo, Triticum aestivum; conditions: Preemergence
In short: as §1

[15] = system: wild oat; test: Test B pre/postemergence wild oat; assay type: in vivo, Avena fatua; conditions: Preemergence
In short: as §1

[16] = system: purple nutsedge; test: Test B pre/postemergence purple nutsedge; assay type: in vivo, Cyperus rotundus
In short: as §1

[17] = system: rice; test: Test B flood test rice; assay type: in vivo, Oryza sativa
In short: (§2)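 Plants were grown to the 2-leaf stage before treatment with test chemical, then held in a greenhouse for twelve to sixteen days. Injury was visually rated against untreated controls on a 0–10 scale, where 0 is no effect and 10 is complete control.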

[18] = system: smallflower flatsedge; test: Test B flood test smallflower flatsedge; assay type: in vivo, Cyperus difformis
In short: as §2

[19] = system: duck salad; test: Test B flood test duck salad; assay type: in vivo, Heteranthera limosa
In short: as §2

[20] = system: bamyardgrass; test: Test B flood test barnyardgrass; assay type: in vivo, Echinochloa crus-galli
In short: as §2

[21] = Preemergence, Rate 31 g/ha, visual rating, scale 0 to 10 (0 no effect, 10 complete control)
[22] = Preemergence, Rate 62 g/ha, scale of 0 to 10 where 0 is no effect and 10 is complete control
[23] = Preemergence, Rate 250 g/ha, scale of 0 to 10 where 0 is no effect and 10 is complete control
[24] = Rate 31 g/ha, Postemergence, scale 0 to 10
[25] = Rate 62 g/ha, Postemergence, scale of 0 to 10 where 0 is no effect and 10 is complete control
[26] = Rate 125 g/ha, Postemergence, scale 0 to 10
[27] = Rate 125 g/ha, Preemergence, scale of 0 to 10 where 0 is no effect and 10 is complete control
[28] = Rate 31 g/ha, visual rating, scale 0 to 10 (0 no effect, 10 complete control)
[29] = Rate 62 g/ha, scale of 0 to 10 where 0 is no effect and 10 is complete control
[30] = Rate 250 g/ha, scale of 0 to 10 where 0 is no effect and 10 is complete control
[31] = Rate 125 g/ha, scale of 0 to 10 where 0 is no effect and 10 is complete control
[32] = Rate 62 g/ha, headed Pre-emergence (flood test species), scale 0 to 10 (0 no effect, 10 complete control)
[33] = Rate 125 g/ha, Pre-emergence, flood test species, scale 0 to 10 where 0 is no effect and 10 is complete control
[34] = Rate 250 g/ha, Pre-emergence, flood-test species, scale 0 to 10, 0 is no effect, 10 is complete control
[35] = Rate 500 g/ha, Pre-emergence, flood test species, scale 0 to 10 (0 no effect, 10 complete control)

CCN(CC)C(=O)Cn1c(=O)on(C(=O)N(c2ccc(F)cc2)C(C)C)c1=O [Compound 264]
Bedstraw plant response rating [1, 21]: 0 | Bedstraw plant response rating [1, 22]: 0 | Bedstraw plant response rating [1, 23]: 0 | Bedstraw plant response rating [1, 24]: 0 | Bedstraw plant response rating [1, 25]: 0 | Bedstraw plant response rating [1, 26]: 6 | Bedstraw plant response rating [1, 27]: 0 | Plant response rating (0 to 10; 0 is no effect, 10 is complete control), Bedstraw ([1]; Rate 250 g/ha, Postemergence): 6 | Blackgrass plant response rating [2, 21]: 0 | Blackgrass plant response rating [2, 22]: 0 | Blackgrass plant response rating [2, 23]: 4 | Blackgrass plant response rating [2, 24]: 0 | Blackgrass plant response rating [2, 25]: 2 | Blackgrass plant response rating [2, 26]: 2 | Blackgrass plant response rating [2, 27]: 0 | Plant response rating (0 to 10; 0 is no effect, 10 is complete control), Blackgrass ([2]; Rate 250 g/ha, Postemergence): 3 | B. signalgrass plant response rating [3, 21]: 0 | B. signalgrass plant response rating [3, 22]: 0 | B. signalgrass plant response rating [3, 23]: 5 | B. signalgrass plant response rating [3, 24]: 0 | B. signalgrass plant response rating [3, 25]: 0 | B. signalgrass plant response rating ([3]; Rate 125 g/ha, Postemergence, scale 0 (no effect) to 10 (complete control)): 0 | B. signalgrass plant response rating [3, 27]: 0 | Plant response rating (0 to 10; 0 is no effect, 10 is complete control), B. signalgrass ([3]; Rate 250 g/ha, Postemergence): 0 | Cocklebur plant response rating [4, 21]: 0 | Cocklebur plant response rating [4, 22]: 0 | Cocklebur plant response rating [4, 23]: 0 | Cocklebur plant response rating [4, 24]: 0 | Cocklebur plant response rating [4, 25]: 0 | Cocklebur plant response rating [4, 26]: 0 | Cocklebur plant response rating [4, 27]: 0 | Plant response rating (0 to 10; 0 is no effect, 10 is complete control), Cocklebur ([4]; Rate 250 g/ha, Postemergence): 0 | Corn plant response rating [5, 21]: 0 | Corn plant response rating [5, 22]: 0 | Corn plant response rating [5, 23]: 0 | Corn plant response rating [5, 24]: 0 | Corn plant response rating [5, 25]: 0 | Corn plant response rating [5, 26]: 0 | Corn plant response rating [5, 27]: 0 | Plant response rating (0 to 10; 0 is no effect, 10 is complete control), Corn ([5]; Rate 250 g/ha, Postemergence): 0 | Crabgrass plant response rating [6, 21]: 0 | Crabgrass plant response rating [6, 22]: 0 | Crabgrass plant response rating [6, 23]: 3 | Crabgrass plant response rating [6, 24]: 0 | Crabgrass plant response rating [6, 27]: 2 | Plant response rating (0 to 10; 0 is no effect, 10 is complete control), Crabgrass ([6]; Rate 250 g/ha, Postemergence): 0 | Giant foxtail plant response rating [7, 21]: 0 | Giant foxtail plant response rating [7, 22]: 2 | Giant foxtail plant response rating [7, 23]: 7 | Giant foxtail plant response rating [7, 24]: 0 | Giant foxtail plant response rating [7, 27]: 7 | Plant response rating (0 to 10; 0 is no effect, 10 is complete control), Giant foxtail ([7]; Rate 250 g/ha, Postemergence): 0 | Morningglory plant response rating [8, 21]: 0 | Morningglory plant response rating [8, 22]: 0 | Morningglory plant response rating [8, 23]: 0 | Morningglory plant response rating [8, 24]: 6 | Morningglory plant response rating [8, 27]: 0 | Plant response rating (0 to 10; 0 is no effect, 10 is complete control), Morningglory ([8]; Rate 250 g/ha, Postemergence): 10 | Redroot pigweed plant response rating [9, 21]: 0 | Redroot pigweed plant response rating [9, 22]: 0 | Redroot pigweed plant response rating [9, 23]: 0 | Redroot pigweed plant response rating [9, 24]: 0 | Redroot pigweed plant response rating [9, 27]: 0 | Plant response rating (0 to 10; 0 is no effect, 10 is complete control), Redroot pigweed ([9]; Rate 250 g/ha, Postemergence): 0 | Rape plant response rating [10, 21]: 0 | Rape plant response rating [10, 22]: 0 | Rape plant response rating [10, 23]: 0 | Rape plant response rating [10, 24]: 0 | Rape plant response rating [10, 27]: 0 | Plant response rating (0 to 10; 0 is no effect, 10 is complete control), Rape ([10]; Rate 250 g/ha, Postemergence): 0 | Soybean plant response rating [11, 28]: 0 | Soybean plant response rating [11, 29]: 0 | Soybean plant response rating [11, 30]: 3 | Soybean plant response rating [11, 31]: 0 | Sugarbeets plant response rating [12, 28]: 0 | Sugarbeets plant response rating [12, 29]: 0 | Sugarbeets plant response rating [12, 30]: 1 | Sugarbeets plant response rating [12, 31]: 0 | Velvetleaf plant response rating [13, 28]: 0 | Velvetleaf plant response rating [13, 29]: 0 | Velvetleaf plant response rating [13, 30]: 0 | Velvetleaf plant response rating [13, 31]: 0 | Wheat plant response rating [14, 28]: 0 | Wheat plant response rating [14, 29]: 0 | Wheat plant response rating [14, 30]: 2 | Wheat plant response rating [14, 31]: 0 | Wild oats plant response rating [15, 28]: 0 | Wild oats plant response rating [15, 29]: 2 | Wild oats plant response rating [15, 30]: 5 | Wild oats plant response rating [15, 31]: 4 | Nutsedge plant response rating [16, 21]: 0 | Nutsedge plant response rating [16, 23]: 0 | Nutsedge plant response rating [16, 24]: 0 | Plant response rating (0 to 10; 0 is no effect, 10 is complete control), Nutsedge ([16]; Rate 250 g/ha, Postemergence): 0 | Rice plant response rating [17, 32]: 0 | Rice plant response rating [17, 33]: 0 | Rice plant response rating [17, 34]: 0 | Rice plant response rating [17, 35]: 1 | S. Flatsedge plant response rating [18, 32]: 0 | S. Flatsedge plant response rating [18, 33]: 0 | S. Flatsedge plant response rating [18, 34]: 0 | S. Flatsedge plant response rating [18, 35]: 0 | Ducksalad plant response rating [19, 32]: 0 | Ducksalad plant response rating [19, 33]: 0 | Ducksalad plant response rating [19, 34]: 0 | Ducksalad plant response rating [19, 35]: 0 | Barnyardgrass plant response rating [20, 32]: 0 | Barnyardgrass plant response rating [20, 33]: 0 | Barnyardgrass plant response rating [20, 34]: 0 | Barnyardgrass plant response rating [20, 35]: 0

From US6737383B1, “Herbicidal oxadiazolidines” (priority 1999, dated 2004)
